Data: US20260285850A1, “SUBSTITUTED OXAZOLIDINONES AND IMIDAZOLINONES AS HERBICIDES” (FMC CORPORATION, priority 2023, published 2026)

Columns and labels:
Type in all cases: in vivo
[1] = tested on: blackgrass (Alopecurus myosuroides); experiment: Test A postemergence application, visual injury rating 0-100
Procedure, shortened: (§1)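 Visual injury, scored 0-100 (100 = complete control) against untreated plants, 10 days after greenhouse treatment. Test chemicals in surfactant-containing non-phytotoxic solvent were applied in loam soil and sand, as a preemergence soil spray on seeds or postemergence to plants at the one- to two-leaf stage.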

soybean (Glycine max) [2] = experiment: as above
Procedure, shortened: as §1

kochia (Bassia scoparia) [3] = experiment: as above
Procedure, shortened: as §1

[4] = tested on: green foxtail (Setaria viridis); experiment: as above
Procedure, shortened: as §1

[5] = tested on: galium (catchweed bedstraw, Galium aparine); experiment: as above
Procedure, shortened: as §1

[6] = tested on: oat, wild (wild oat, Avena fatua); experiment: as above
Procedure, shortened: as §1

[7] = tested on: palmer (palmer amaranth, palmer pigweed, Amaranthus palmeri); experiment: as above
Procedure, shortened: as §1

[8] = tested on: barnyardgrass (Echinochloa crus-galli); experiment: as above
Procedure, shortened: as §1

corn (Zea mays) [9] = experiment: as above
Procedure, shortened: as §1

[10] = tested on: ragweed (common ragweed, Ambrosia artemisiifolia); experiment: as above
Procedure, shortened: as §1

[11] = tested on: wheat (Triticum aestivum); experiment: as above
Procedure, shortened: as §1

[12] = tested on: horseweed (Erigeron canadensis); experiment: as above
Procedure, shortened: as §1

[13] = tested on: ryegrass, Italian (italian ryegrass, Lolium multiflorum); experiment: as above
Procedure, shortened: as §1

[14] = tested on: ducksalad (Heteranthera limosa); experiment: Test B flooded paddy test, visual plant response rating 0-100; details: 250 g ai/ha, Flood, applied to paddy water, evaluated after 13 days
Procedure, shortened: (§2)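 Greenhouse, 13 d. Seedlings at 2-leaf stage, pots flooded to 3 cm, compound delivered into floodwater, water level held constant. Evaluated visually relative to controls.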

rice (Oryza sativa) = experiment: as above; details: 250 g ai/ha, Flood, applied to paddy water, evaluated after 13 days
Procedure, shortened: as §2

[15] = tested on: barnyardgrass (Echinochloa crusgalli); experiment: as above; details: 250 g ai/ha, Flood, applied to paddy water, evaluated after 13 days
Procedure, shortened: as §2

[16] = tested on: sedge, umbrella (small-flower umbrella sedge, Cyperus difformis); experiment: as above; details: 250 g ai/ha, Flood, applied to paddy water, evaluated after 13 days
Procedure, shortened: as §2

[17] = tested on: blackgrass (Alopecurus myosuroides); experiment: Test A preemergence soil spray, visual injury rating 0-100; details: 10 days
Procedure, shortened: as §1

soybean (Glycine max) [18] = experiment: as above; details: 10 days
Procedure, shortened: as §1

kochia (Bassia scoparia) [19] = experiment: as above; details: 10 days
Procedure, shortened: as §1

[20] = tested on: green foxtail (Setaria viridis); experiment: as above; details: 10 days
Procedure, shortened: as §1

[21] = tested on: oat, wild (wild oat, Avena fatua); experiment: as above; details: 10 days
Procedure, shortened: as §1

[22] = tested on: palmer (palmer amaranth, palmer pigweed, Amaranthus palmeri); experiment: as above; details: 10 days
Procedure, shortened: as §1

[23] = tested on: barnyardgrass (Echinochloa crus-galli); experiment: as above; details: 10 days
Procedure, shortened: as §1

corn (Zea mays) [24] = experiment: as above; details: 10 days
Procedure, shortened: as §1

[25] = tested on: ragweed (common ragweed, Ambrosia artemisiifolia); experiment: as above; details: 10 days
Procedure, shortened: as §1

[26] = tested on: wheat (Triticum aestivum); experiment: as above; details: 10 days
Procedure, shortened: as §1

[27] = tested on: ryegrass, Italian (italian ryegrass, Lolium multiflorum); experiment: as above; details: 10 days
Procedure, shortened: as §1

[28] = 62 g ai/ha, postemergence, 10 days, 0 = no effect, 100 = complete control
[29] = Postemergence, 16 g ai/ha, greenhouse 10 days, 0 no effect, 100 complete control
[30] = 62 g ai/ha, 0 = no effect, 100 = complete control

## C=CC1(C(=O)NC2CC(C(=O)OC)C2)CN(c2cc(F)cc(F)c2)C(=O)O1 (stereo not shown) [Compound 174]
[1]; [28]
  Blackgrass plant response rating (0-100): 0
[1]; [29]
  Blackgrass plant response rating (0 to 100 scale): 0
Soybean (Glycine max) [2]; [28]
  Soybean plant response rating (0-100): 0
Soybean (Glycine max) [2]; [29]
  Soybean plant response rating (0 to 100 scale): 0
Kochia (Bassia scoparia) [3]; [28]
  Kochia plant response rating (0-100): 0
Kochia (Bassia scoparia) [3]; [29]
  Kochia plant response rating (0 to 100 scale): 0
[4]; [28]
  Foxtail, Green plant response rating (0-100): 0
[4]; [29]
  Foxtail, Green plant response rating (0 to 100 scale): 0
[5]; [28]
  Galium plant response rating (0-100): 0
[5]; [29]
  Galium plant response rating (0 to 100 scale): 0
[6]; [28]
  Oat, Wild plant response rating (0-100): 0
[6]; [29]
  Oat, Wild plant response rating (0 to 100 scale): 0
[7]; [28]
  Pigweed, Palmer plant response rating (0-100): 0
[7]; [29]
  Pigweed, Palmer plant response rating (0 to 100 scale): 0
[8]; [28]
  Barnyardgrass plant response rating (0-100): 20
[8]; [29]
  Barnyardgrass plant response rating (0 to 100 scale): 10
Corn (Zea mays) [9]; [28]
  Corn plant response rating (0-100): 0
Corn (Zea mays) [9]; [29]
  Corn plant response rating (0 to 100 scale): 0
[10]; [28]
  Ragweed plant response rating (0-100): 0
[10]; [29]
  Ragweed plant response rating (0 to 100 scale): 0
[11]; [28]
  Wheat plant response rating (0-100): 0
[11]; [29]
  Wheat plant response rating (0 to 100 scale): 0
[12]; [28]
  Horseweed plant response rating (0-100): 0
[12]; [29]
  Horseweed plant response rating (0 to 100 scale): 0
[13]; [28]
  Ryegrass, Italian plant response rating (0-100): 0
[13]; [29]
  Ryegrass, Italian plant response rating (0 to 100 scale): 0
[14]
  Plant response rating, Ducksalad (0 to 100 scale, 0 is no effect and 100 is complete control): 0
Rice (Oryza sativa)
  Plant response rating, Rice (0 to 100 scale, 0 is no effect and 100 is complete control): 0
[15]
  Plant response rating, Barnyardgrass (0 to 100 scale, 0 is no effect and 100 is complete control): 0
[16]
  Plant response rating, Sedge, Umbrella (0 to 100 scale, 0 is no effect and 100 is complete control): 0
[17]; 16 g ai/ha, 0 to 100 scale
  Blackgrass plant response rating: 0
[17]; [30]
  Blackgrass plant response rating (0-100): 0
Soybean (Glycine max) [18]; 16 g ai/ha, 0 to 100 scale
  Soybean plant response rating: 0
Soybean (Glycine max) [18]; [30]
  Soybean plant response rating (0-100): 0
Kochia (Bassia scoparia) [19]; 16 g ai/ha, 0 to 100 scale
  Kochia plant response rating: 0
Kochia (Bassia scoparia) [19]; [30]
  Kochia plant response rating (0-100): 0
[20]; 16 g ai/ha, 0 to 100 scale
  Foxtail, Green plant response rating: 0
[20]; [30]
  Foxtail, Green plant response rating (0-100): 0
[21]; 16 g ai/ha, 0 to 100 scale
  Oat, Wild plant response rating: 0
[21]; [30]
  Oat, Wild plant response rating (0-100): 0
[22]; 16 g ai/ha, 0 to 100 scale
  Pigweed, Palmer plant response rating: 0
[22]; [30]
  Pigweed, Palmer plant response rating (0-100): 0
[23]; 16 g ai/ha, 0 to 100 scale
  Barnyardgrass plant response rating: 0
[23]; [30]
  Barnyardgrass plant response rating (0-100): 0
Corn (Zea mays) [24]; 16 g ai/ha, 0 to 100 scale
  Corn plant response rating: 0
Corn (Zea mays) [24]; [30]
  Corn plant response rating (0-100): 0
[25]; 16 g ai/ha, 0 to 100 scale
  Ragweed plant response rating: 0
[25]; [30]
  Ragweed plant response rating (0-100): 0
[26]; 16 g ai/ha, 0 to 100 scale
  Wheat plant response rating: 0
[26]; [30]
  Wheat plant response rating (0-100): 0
[27]; 16 g ai/ha, 0 to 100 scale
  Ryegrass, Italian plant response rating: 0
[27]; [30]
  Ryegrass, Italian plant response rating (0-100): 0
